Data set [1] in a line: Distribution coefficients in octanol–water system. Type of data set: physicochemical. The note with it: 25 °C. As for the experimental part: Simulated gastric fluid (SGF) consisted of 0.2% (w/v) sodium chloride, 0.32% (w/v) pepsin, and 0.7% (v/v) HCl (final pH = 1.2). Simulated intestinal fluid (SIF) was prepared by dissolving 3 mM sodium taurocholate and 0.1% (w/v) pancreatin in phosphate buffer (final pH = 7.0). The solubility of acacetin was measured by adding excessive amounts of acacetin into glass vials containing 1.5 mL of water, pH 7.4 phosphate buffer, SGF, and SIF. The mixtures were allowed to reach equilibrium in a shaking incubator (FINEPCR, Gyeonggi-do, South Korea) at 500 rpm at 37 °C for 48 h. The samples were centrifuged at 16,000× g for 5 min, and the supernatant was passed through a 0.20-μm syringe filter to remove excess acacetin. Further, the concentration of acacetin in the filtrate was determined using the LC-MS/MS method. The distribution coefficients of acacetin in water (log P) and pH 7.4 phosphate buffer (log D7.4) were determined using an octanol–water system at 25 ± 0.5 °C. […] Finally, the acacetin concentrations in the octanol and water layers were determined using the LC-MS/MS method. The membrane permeability of acacetin and reference compounds (verapamil as a reference for high permeability and ranitidine as a reference for low permeability) was assessed by parallel artificial membrane permeability assay (PAMPA). […] The permeability was calculated using pION PAMPA Explorer ver. […]

Data set [2] in a line: Unbound fraction by rapid equilibrium dialysis. The class given is in vitro ADME, rat. On the procedure: The fractions of unbound acacetin in plasma (fuP), microsomes (fuMIC), SGF (fuSGF), and SIF(fuSIF) were measured using a rapid equilibrium dialysis device (Thermo Fisher Scientific, Inc., Waltham, MA, USA) as previously described with slight modifications. Briefly, 0.2 mL of the matrix spiked with acacetin (10 μM) was placed into the “sample” chamber, and 0.4 mL of PBS was placed into the adjacent “buffer” chamber. The fractions of unbound acacetin were calculated as the concentration ratio between the two chambers. The blood-to-plasma concentration ratio (RB) of acacetin was determined as described previously. Briefly, 1-mL blood spiked with acacetin (1 μM) was incubated at 37 °C for 30 min. The blood sample was centrifuged at 2000× g for 5 min to prepare the plasma sample. The concentrations of acacetin in the aforementioned plasma and buffer samples were measured using the LC-MS/MS method.
In general terms: In equilibrium dialysis free small molecules cross a membrane that holds back macromolecules.

Data set [3] can be described thus: Oral pharmacokinetic study in rats. Type of data set: in vivo. As for the experimental part: The rats were fasted overnight before the experiment and anesthetized using an intramuscular injection of zoletil at 20 mg/kg. The femoral artery and vein were cannulated with a polyethylene tube (Clay Adams, Parsippany, NJ, USA). Acacetin (dissolved in a vehicle composed of DMSO, ethanol, and PEG400 (10:5:85, v/v/v)) was administered intravenously (10 mg/kg) or orally (100 mg/kg) to rats. Approximately 250 μL of blood was collected via the femoral artery at 0, 2, 5, 15, 30, 45, 60, 120, and 180 min after intravenous administration and at 0, 2, 5, 15, 30, 45, 60, 90, 120, and 180 min after oral administration. The cannula was flushed with heparin (20 IU/mL in saline) at each time point to prevent blood clotting. Following centrifugation of the blood sample at 8000× g and 4 °C for 2 min, 120 μL of plasma was obtained. Urine was collected at 1-h intervals in an ice-cold container over 24 h. After urine collection at 24 h, each rat was sacrificed by cervical dislocation; the entire GI tract (including its contents and feces) was excised, transferred into a beaker containing 100 mL methanol, and cut into small pieces using scissors. After manual stirring with a glass rod for 1 min, a 50-μL aliquot of the supernatant was collected. The plasma, urine (Ae24h), and GI tract (GI24h) samples were stored at −80 °C until further LC-MS/MS analysis.
A noncompartmental analysis (WinNonlin ver. 3.1; Certara USA Inc., Princeton, NJ, USA) was performed to determine the following pharmacokinetic parameters: the AUCinf, area under plasma concentration versus time curve from time zero to the last sampling time (AUClast), t1/2, total body clearance (CL), apparent volume of distribution at steady state (Vss), and absolute oral bioavailability (F). The Cmax and time to reach Cmax (Tmax) were directly obtained from the plasma concentration versus time data.

Data set [4] is described as follows: In situ closed-loop study (jejunal loop). The class given is in vivo, rat. On the procedure:
The in situ closed-loop study was performed as previously described with slight modification. Briefly, after minimal abdominal incision under light ether anesthetization and sufficient washing of the contents within the GI tract, the jejunal loop was closed by ligation performed at approximately 2 cm distal to both ends of each jejunal section. Acacetin suspension (final concentration: 1 mg/mL) was prepared by dispersing acacetin powder in the vehicle solution for oral study and subsequently diluting it 5-fold with the SIF (final composition: 2% DMSO, 1% EtOH, and 17% PEG400 in the SIF). After injecting 0.2 mL of acacetin suspension into each loop using a l-mL 31-gauge syringe, the whole GI tract was carefully returned to its original position in the abdominal cavity. At 4 h after the injection, each loop was removed, transferred into a beaker containing 50 mL of methanol, and handled similar to the GI samples in the in vivo pharmacokinetic study. As control (in vitro isolated loop) groups, the jejunal closed-loop was prepared in the same manner as the in situ loop study, removed from the rat intestinal tract using scissors with special care not to damage the loop, and transferred to a glass beaker. Then, acacetin dispersed in the vehicle was injected into the isolated loop. After 0-h and 4-h incubation at 37 °C, the remaining fraction of acacetin in the isolated loop was measured in the same manner as the procedure for the GI sample in the in vivo pharmacokinetic study.

Where two headings read alike, the source gives them in different places.

In the case of `COc1ccc(-c2cc(=O)c3c(O)cc(O)cc3o2)cc1` [acacetin, Acacetin], the logD in data set [1] (n-octanol/pH 7.4 phosphate buffer, pH 7.4, n-octanol/pH 7.4 phosphate buffer, read-out: Log D7.4) was greater than 3. The lipophilicity (logP) (in general, the decadic logarithm of the partition coefficient of the neutral form, usually between octanol and water) in data set [1] (octanol/water, n-octanol/water) was greater than 3. Moreover, the free fraction (fraction unbound) (commonly free concentration divided by total concentration) at 10 μM is 0.822 ± 0.026 in data set [2] (SGF, 10 μM, read-out: fuSGF (fraction unbound in SGF)); 0.714 ± 0.009 in data set [2] (SIF, 10 μM, read-out: fuSIF (fraction unbound in SIF)); 0.302 ± 0.021 in data set [2] (Sprague-Dawley, rat, liver microsomes (RLM), RLM, 10 μM, read-out: fuMIC (fraction unbound in microsomes)); 0.00901 to 0.317 in data set [2] (Sprague-Dawley, rat, plasma and liver microsomes (RLM), range over plasma and RLM, read-out: Unbound fraction in plasma and RLM); 0.0102 ± 0.0011 in data set [2] (Sprague-Dawley, rat plasma, 10 μM, read-out: fuP (fraction unbound in plasma)); 0.707 to 0.849 in data set [2] (range over SGF and SIF, read-out: Unbound fraction in SGF and SIF). In addition, the GI24h in data set [3] (PO 100 mg/kg, GI tract at 24 h) is 29.3 ± 22.3 % of dose. In addition, the Ae24h in data set [3] (PO 100 mg/kg, urine 24 h) is 0.0601 ± 0.0634 % of dose. Besides, the AUC(0-t) (usually exposure summed from dosing to a finite time, without extrapolation to infinity) in data set [3] (rat, plasma, PO 100 mg/kg) is 12.9 ng·h/mL. Moreover, in data set [3] (rat, plasma, PO 100 mg/kg), the highest concentration (Cmax) (in general, the highest concentration seen after dosing) is 52.1 ± 50.5 ng/mL. For the same compound, the Tmax (as a rule, the time from dosing to the highest level) in data set [3] (rat, plasma, PO 100 mg/kg, median (range)) is 5 min. Moreover, the bioavailability – broadly, the share of a dose that reaches the circulation, judged against a reference dose that is usually intravenous – in data set [3] (rat, urine, PO 100 mg/kg vs IV 10 mg/kg, from dose-normalized urinary excretion, read-out: F (absolute oral bioavailability)) was determined as 2.34%. Moreover, the “Fraction of dose eliminated by GI and hepatic first-pass metabolism” value in data set [4] (= 2.9 − 2.34) is listed as 0.56 % of the dose. Moreover, the “Fraction unabsorbed from the GI tract” value in data set [4] (=100 − 2.9) is 97.1 % of the dose. Besides, the “Portion absorbed from the loop” value in data set [4] (difference isolated loop vs in situ loop) amounted to 2.9%. Further, the “Remaining fraction in the in vitro isolated loop” value in data set [4] (jejunal loop, 4-h incubation at 37 °C) amounted to 78.9%. Further, the “Remaining fraction in the in situ loop” value in data set [4] (rat jejunal loop, 4 h after injection) is listed as 76.0%.

The record behind these values is article PMC7911516, “Investigation of the Factors Responsible for the Poor Oral Bioavailability of Acacetin in Rats: Physicochemical and Biopharmaceutical Aspects” (Pharmaceutics, 2021).
